# According to the NIST ThermoML archive (doi:10.1016/j.fluid.2010.06.003):
# Values joined by “and” are separate entries in the source; they are usually repeats but may differ in a detail not shown here. Identical values can stand only once.
# Experiment: xn = mol fraction of the nth substance listed
# Conditions: Liquid, Taylor dispersion method, x1 = 0
Compound,"binary diffusion coefficient (313.15 K, 160 kPa)","binary diffusion coefficient (313.15 K, 16010 kPa)","binary diffusion coefficient (313.15 K, 16030 kPa)","binary diffusion coefficient (313.15 K, 19010 kPa)","binary diffusion coefficient (313.15 K, 170 kPa)","binary diffusion coefficient (313.15 K, 11090 kPa)","binary diffusion coefficient (313.15 K, 16020 kPa)","binary diffusion coefficient (313.15 K, 19020 kPa)","binary diffusion coefficient (313.15 K, 200 kPa)","binary diffusion coefficient (313.15 K, 11030 kPa)","binary diffusion coefficient (323.15 K, 16020 kPa)","binary diffusion coefficient (323.15 K, 16030 kPa)",further results
CCc1ccc[cH-]1.[Fe+2].c1cc[cH-]c1 [ethyl ferrocene] + CCCCCC,3.35e-09 m2/s and 3.37e-09 m2/s and 3.38e-09 m2/s and 3.3e-09 m2/s and 3.34e-09 m2/s,2.86e-09 m2/s and 2.89e-09 m2/s,2.87e-09 m2/s,2.78e-09 m2/s,,,,,,,,,"binary diffusion coefficient (313.15 K, 11060 kPa): 2.98e-09 m2/s; binary diffusion coefficient (313.15 K, 11070 kPa): 3e-09 m2/s and 2.99e-09 m2/s; binary diffusion coefficient (313.15 K, 18960 kPa): 2.81e-09 m2/s"
[CH]1C=CC=C1.[CH]1C=CC=C1.[Fe] [ferrocene] + CCCCCC,3.66e-09 m2/s and 3.65e-09 m2/s,3.13e-09 m2/s,3.11e-09 m2/s and 3.14e-09 m2/s,,3.64e-09 m2/s,3.29e-09 m2/s,3.12e-09 m2/s,3.07e-09 m2/s,,,,,"binary diffusion coefficient (313.05 K, 16020 kPa): 3.14e-09 m2/s; binary diffusion coefficient (313.05 K, 16030 kPa): 3.11e-09 m2/s; binary diffusion coefficient (313.15 K, 10990 kPa): 3.28e-09 m2/s and 3.25e-09 m2/s; binary diffusion coefficient (313.15 K, 11070 kPa): 3.28e-09 m2/s; binary diffusion coefficient (313.15 K, 15990 kPa): 3.17e-09 m2/s"
[CH]1C=CC=C1.[CH]1C=CC=C1.[Fe] [ferrocene] + CCO,,,,,,,,,1.48e-09 m2/s and 1.46e-09 m2/s and 1.45e-09 m2/s,,,,
"C[c-]1cccc1.C[c-]1cccc1.[Fe+2] [1,1'-dimethylferrocene] + C1CCCCC1",,1.14e-09 m2/s,1.13e-09 m2/s,1.09e-09 m2/s,,1.21e-09 m2/s,1.14e-09 m2/s,1.09e-09 m2/s and 1.14e-09 m2/s and 1.11e-09 m2/s,,1.2e-09 m2/s,1.36e-09 m2/s,1.36e-09 m2/s,"binary diffusion coefficient (313.15 K, 190 kPa): 1.36e-09 m2/s and 1.37e-09 m2/s; binary diffusion coefficient (313.15 K, 11020 kPa): 1.2e-09 m2/s; binary diffusion coefficient (323.15 K, 16000 kPa): 1.36e-09 m2/s"
CCc1ccc[cH-]1.[Fe+2].c1cc[cH-]c1 [ethyl ferrocene] + CCO,,,,,,,,,1.29e-09 m2/s and 1.32e-09 m2/s and 1.31e-09 m2/s,,,,
"C[c-]1cccc1.C[c-]1cccc1.[Fe+2] [1,1'-dimethylferrocene] + CCCCCC",3.36e-09 m2/s and 3.4e-09 m2/s and 3.37e-09 m2/s,2.9e-09 m2/s,2.9e-09 m2/s,,3.41e-09 m2/s,,,2.84e-09 m2/s,,3.05e-09 m2/s and 3.06e-09 m2/s,,,"binary diffusion coefficient (313.15 K, 15990 kPa): 2.9e-09 m2/s; binary diffusion coefficient (313.15 K, 16000 kPa): 2.89e-09 m2/s and 2.87e-09 m2/s"
"C[c-]1cccc1.C[c-]1cccc1.[Fe+2] [1,1'-dimethylferrocene] + CCO",,,,,,,,,1.29e-09 m2/s and 1.3e-09 m2/s and 1.31e-09 m2/s,,,,
CCc1ccc[cH-]1.[Fe+2].c1cc[cH-]c1 [ethyl ferrocene] + C1CCCCC1,,,1.14e-09 m2/s and 1.15e-09 m2/s,1.12e-09 m2/s and 1.15e-09 m2/s,1.38e-09 m2/s,,,1.12e-09 m2/s,,1.2e-09 m2/s,1.36e-09 m2/s,1.35e-09 m2/s,"binary diffusion coefficient (313.15 K, 180 kPa): 1.36e-09 m2/s and 1.38e-09 m2/s; binary diffusion coefficient (313.15 K, 11020 kPa): 1.21e-09 m2/s; binary diffusion coefficient (313.15 K, 19030 kPa): 1.11e-09 m2/s"
[CH]1C=CC=C1.[CH]1C=CC=C1.[Fe] [ferrocene] + C1CCCCC1,,1.25e-09 m2/s,1.25e-09 m2/s,1.21e-09 m2/s,1.52e-09 m2/s,1.32e-09 m2/s,1.25e-09 m2/s,1.21e-09 m2/s and 1.22e-09 m2/s and 1.24e-09 m2/s,1.5e-09 m2/s,1.31e-09 m2/s,1.48e-09 m2/s,1.48e-09 m2/s,"binary diffusion coefficient (313.15 K, 190 kPa): 1.51e-09 m2/s; binary diffusion coefficient (313.15 K, 11080 kPa): 1.31e-09 m2/s"
